In PubChem BioAssay (NCI):
Several values for one entry are separate records, joined by “and”; a condition that tells them apart may be missing. Equal entries are not always repeated.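 Following 48 hours of exposure in 96-well plates, responses at five concentrations were used to interpolate endpoints linearly. GI50 marks 50% less growth. TGI: concentration producing complete growth inhibition.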

What was measured:
Assay in all cases: NCI anticancer screen, dose series, 48 h
[1] = tested on: EKVX NSCLC
[2] = tested on: HL-60(TB) leukemia
[3] = tested on: SK-MEL-5 melanoma
[4] = tested on: HOP-62 NSCLC
[5] = tested on: RXF 393 renal
[6] = tested on: COLO 205 colon
[7] = tested on: HOP-92 NSCLC
[8] = tested on: CCRF-CEM leukemia
[9] = tested on: T-47D breast
[10] = tested on: PC-3 prostate

Cc1cc(Cl)ccc1N1C(=O)C(=O)C(c2nc3ccccc3o2)C(=O)C1=O
TGI [1]: > 100 µM | TGI [2]: > 100 µM | TGI [3]: > 100 µM | TGI [4]: > 100 µM | TGI [5]: > 100 µM | TGI [6]: > 100 µM | TGI [7]: > 100 µM | TGI [8]: > 100 µM

Cc1cccc(Cl)c1NC(=O)c1cccc([N+](=O)[O-])c1O
TGI [1]: > 100 µM | TGI [4]: 54.4 µM | TGI [5]: 50.7 µM | TGI [6]: > 100 µM | TGI [7]: 69.6 µM | TGI [8]: > 100 µM

C[CH2][Ge]([CH2]C)([CH2]C)[O]C(=O)C([O][Ge]([CH2]C)([CH2]C)[CH2]C)c1ccccc1 (stereo not given)
GI50 [1]: 9.4 µM | TGI [1]: 75.1 µM | GI50 [2]: 14.7 µM | TGI [2]: 38.9 µM | GI50 [3]: 11.8 µM | TGI [3]: 26.8 µM | GI50 [4]: 19.5 µM | TGI [4]: 42.8 µM | TGI [5]: 16.1 µM | GI50 [6]: 22.1 µM | TGI [6]: 55.7 µM | GI50 [7]: 4.32 µM | TGI [7]: 45.9 µM | GI50 [8]: 20.6 µM | TGI [8]: > 100 µM

CC(=O)OCC1OC(n2c(=S)n(-c3ccccc3)c(=O)c3cc(Br)ccc32)C(OC(C)=O)C(OC(C)=O)C1OC(C)=O (stereo not given)
TGI [1]: > 100 µM | TGI [2]: > 100 µM | TGI [3]: > 100 µM | TGI [4]: > 100 µM | GI50 [5]: 33.7 µM and > 100 µM | TGI [5]: > 100 µM | TGI [6]: > 100 µM | GI50 [7]: 22.1 µM and > 100 µM | TGI [7]: > 100 µM | TGI [8]: > 100 µM

O=C1C(CO)=C[C@@H](O)[C@H]2O[C@@H]12
TGI [1]: > 100 µM | TGI [2]: > 100 µM | TGI [3]: > 100 µM | TGI [4]: > 100 µM | TGI [6]: > 100 µM | TGI [7]: > 100 µM | TGI [9]: > 100 µM | TGI [8]: > 100 µM

O=C(Nc1nc(-c2ccccc2)cs1)c1cc(O)c(O)c(O)c1
GI50 [2]: 3.05 µM | TGI [2]: 10.1 µM | GI50 [3]: 3.6 µM | TGI [3]: 20.7 µM | GI50 [4]: 5.73 µM | TGI [4]: 30.6 µM | GI50 [5]: 3.55 µM | TGI [5]: 19.7 µM | GI50 [6]: 10.8 µM | TGI [6]: 30.1 µM | GI50 [7]: 1.56 µM | TGI [7]: 9.66 µM | GI50 [9]: 2.34 µM | TGI [9]: 22.8 µM | GI50 [8]: 0.687 µM | TGI [8]: 10.5 µM

OCC#CCCCCOCC#Cc1ccccc1C#CCOCCCCC#CCO
GI50 [1]: 17.8 µM | TGI [1]: 41.3 µM | GI50 [2]: 36.2 µM | TGI [2]: > 100 µM | GI50 [3]: 15.1 µM | TGI [3]: 30.5 µM | GI50 [5]: 31.8 µM | TGI [5]: 96.9 µM | GI50 [6]: 27.1 µM | TGI [6]: > 100 µM | GI50 [7]: 28.8 µM | TGI [7]: 62 µM | GI50 [10]: 40.6 µM | TGI [10]: 98.4 µM

O=C([CH-]C(=O)c1ccccc1)c1ccccc1.[CH3-].[CH3-].[CH3-].[Sn+4]
GI50 [1]: 33.1 µM | TGI [1]: > 100 µM | GI50 [2]: 2.67 µM | TGI [2]: 16 µM | GI50 [3]: 8.21 µM | TGI [3]: 35.1 µM | GI50 [4]: 22.9 µM | TGI [4]: 94.9 µM | GI50 [5]: 10.6 µM | TGI [5]: 31.9 µM | GI50 [6]: 17.8 µM | TGI [6]: 35.8 µM | GI50 [7]: 27.8 µM | TGI [7]: 67.3 µM

Cc1cccc2cc3cccc(C(=O)NCCN(C)C)c3nc12
TGI [1]: 1.69 µM | TGI [2]: 1.15 µM | TGI [3]: 0.825 µM | TGI [4]: 0.502 µM | TGI [5]: 0.931 µM | TGI [6]: 1.75 µM | TGI [7]: 1.38 µM | TGI [8]: 3.53 µM

NC1=NCC(c2ccccn2)C1c1ccc(F)cc1 (stereo not given)
TGI [1]: > 100 µM | TGI [3]: > 100 µM | TGI [4]: > 100 µM | TGI [5]: > 100 µM | TGI [6]: > 100 µM | TGI [7]: > 100 µM | TGI [8]: > 100 µM

NCCn1cnc2nc(NC(=O)c3ccccc3)[nH]c(=O)c21
TGI [1]: > 100 µM | TGI [2]: > 100 µM | TGI [4]: > 100 µM | TGI [5]: > 100 µM | TGI [6]: > 100 µM | TGI [7]: > 100 µM

COc1cc(/C=C2\NC(=S)C3Cc4c(OC)c(C)c(OC)c(OC)c4C2N3C)c(OC)c(C)c1OC (stereo not given)
TGI [1]: > 100 µM | TGI [2]: 67.6 µM | TGI [3]: 73.1 µM | TGI [4]: > 100 µM | TGI [5]: 67.6 µM | TGI [6]: 35.2 µM | TGI [7]: > 100 µM | TGI [8]: > 100 µM

Cc1nnc2n1N=C(c1ccc(-c3ccc([N+](=O)[O-])cc3)o1)CS2
TGI [2]: > 100 µM | TGI [4]: > 100 µM | TGI [6]: > 100 µM | TGI [7]: > 100 µM

Oc1c(Cl)cc(CN(Cc2cc(Cl)c(O)c(Cl)c2)C2CCCCC2)cc1Cl
TGI [1]: > 100 µM | TGI [3]: > 100 µM | TGI [4]: > 100 µM | TGI [5]: > 100 µM | TGI [6]: > 100 µM | TGI [7]: > 100 µM | TGI [9]: > 100 µM | TGI [10]: > 100 µM

CN(C)CCC(/C=C/c1ccccc1)=N\Nc1ccc(Cl)cc1
TGI [1]: 11.4 µM | TGI [2]: 5.32 µM | TGI [3]: 31.5 µM | TGI [4]: 4.07 µM | TGI [5]: 20.9 µM | TGI [6]: 16.5 µM | TGI [7]: 8.82 µM | TGI [8]: 11 µM
